Assay results: ChEMBL document CHEMBL5226325, “Optimization of a Screening Hit toward M2912, an Oral Tankyrase Inhibitor with Antitumor Activity in Colorectal Cancer Models” (J Med Chem, 2021)
Active and inactive are the calls of the source. The rule behind the calls is not given here.

Key:
[1] = Modulation of Wnt/beta-catenin signaling pathway in human DLD-1 cells assessed as induction of AXIN2 accumulation incubated for 24 hrs by ELISA; format: cell-based; details: DLD-1, 24 h
[2] = biological target: T1, Poly [ADP-ribose] polymerase 1 (Homo sapiens, UniProt P09874); experiment: Inhibition of PARP-1 (unknown origin) using biotinylated NAD and NAD as substrate assessed as inhibition of auto-PARsylation incubated for 150 mins by TR-FRET assay
[3] = biological target: T2, Poly [ADP-ribose] polymerase tankyrase-2 (Homo sapiens, UniProt Q9H2K2); experiment: Inhibition of TNKS2 (unknown origin)
T2 sequence (Q9H2K2 whole entry): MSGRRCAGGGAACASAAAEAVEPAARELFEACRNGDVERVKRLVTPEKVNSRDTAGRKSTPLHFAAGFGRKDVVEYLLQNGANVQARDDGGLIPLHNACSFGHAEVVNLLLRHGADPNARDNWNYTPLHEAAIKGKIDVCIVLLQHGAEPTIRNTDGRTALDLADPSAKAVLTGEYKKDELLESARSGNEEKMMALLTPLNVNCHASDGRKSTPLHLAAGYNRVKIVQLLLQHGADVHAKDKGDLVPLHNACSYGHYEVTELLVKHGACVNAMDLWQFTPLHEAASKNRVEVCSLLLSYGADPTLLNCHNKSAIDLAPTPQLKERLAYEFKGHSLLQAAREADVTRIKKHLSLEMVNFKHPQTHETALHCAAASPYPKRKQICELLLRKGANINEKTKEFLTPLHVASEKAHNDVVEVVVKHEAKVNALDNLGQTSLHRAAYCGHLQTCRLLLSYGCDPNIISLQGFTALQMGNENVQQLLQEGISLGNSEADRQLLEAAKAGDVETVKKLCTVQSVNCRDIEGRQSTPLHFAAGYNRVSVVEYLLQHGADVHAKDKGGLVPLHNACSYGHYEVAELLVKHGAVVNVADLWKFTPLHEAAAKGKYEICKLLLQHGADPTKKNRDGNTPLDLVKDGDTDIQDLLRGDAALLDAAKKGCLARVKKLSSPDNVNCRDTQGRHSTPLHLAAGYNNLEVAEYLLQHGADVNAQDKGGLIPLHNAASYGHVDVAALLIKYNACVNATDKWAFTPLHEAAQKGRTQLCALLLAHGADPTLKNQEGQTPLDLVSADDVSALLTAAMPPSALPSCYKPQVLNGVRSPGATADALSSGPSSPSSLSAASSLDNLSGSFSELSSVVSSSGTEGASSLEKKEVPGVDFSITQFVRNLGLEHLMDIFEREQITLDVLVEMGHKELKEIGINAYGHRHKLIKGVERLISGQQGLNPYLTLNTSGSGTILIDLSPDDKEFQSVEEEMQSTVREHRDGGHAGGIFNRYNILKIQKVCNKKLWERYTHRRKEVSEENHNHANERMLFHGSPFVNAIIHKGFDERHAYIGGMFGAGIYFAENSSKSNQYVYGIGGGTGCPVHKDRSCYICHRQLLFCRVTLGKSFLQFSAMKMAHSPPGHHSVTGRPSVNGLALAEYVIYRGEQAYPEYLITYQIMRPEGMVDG

[4] = biological target: T1, Poly [ADP-ribose] polymerase 1; experiment: Inhibition of N-terminal GST-tagged human recombinant PARP1 (2 to 1014 residues) expressed in Sf9 insect cells by chemiluminescence assay
[5] = biological target: Protein mono-ADP-ribosyltransferase TIPARP (Homo sapiens, UniProt Q7Z3E1); experiment: Inhibition of N-terminal FLAG-tagged human recombinant PARP7 (400 to 657 residues) expressed in Sf9 insect cells by chemiluminescence assay
[6] = biological target: Protein mono-ADP-ribosyltransferase PARP10 (Homo sapiens, UniProt Q53GL7); experiment: Inhibition of human PARP10 by chemiluminescence assay
[7] = biological target: Protein mono-ADP-ribosyltransferase PARP14 (Homo sapiens, UniProt Q460N5); experiment: Inhibition of N-terminal GST/6xHis/TEV-tagged human recombinant PARP14 (1470 to 1801 residues) expressed in Sf9 insect cells by chemiluminescence assay
HT55 [8] = experiment: Cytotoxicity against human HT55 cells assessed as reduction in cell growth incubated for 14 days by resazurin dye based assay; format: functional; details: time 14.0 day
DLD-1 = experiment: Cytotoxicity against human DLD-1 cells assessed as reduction in cell growth at 0.01 to 10 uM incubated for 14 days by resazurin dye based assay; format: functional; details: dose 0.01-10 µM, time 14.0 day
HCT-15 = experiment: Cytotoxicity against human HCT-15 cells assessed as reduction in cell growth at 0.01 to 10 uM incubated for 14 days by resazurin dye based assay; format: functional; details: dose 0.01-10 µM, time 14.0 day
Adenosine receptor A3 = Adenosine receptor A3 (Homo sapiens, UniProt P0DMS8); experiment: Inhibition of A3 adenosine receptor (unknown origin); format: toxicity
[9] = Unbound fraction in mouse plasma; format: ADME, cell-free
[10] = Unbound fraction in dog plasma; format: ADME, cell-free, Canis lupus familiaris
[11] = Unbound fraction in monkey plasma; format: ADME, cell-free, Macaca mulatta; details: rhesus monkey
[12] = Volume of distribution at steady state in monkey; format: ADME, Macaca mulatta; details: rhesus monkey, in vivo; read-out: Vdss
[13] = Hepatic blood flow in rat; format: ADME
[14] = Hepatic blood flow in dog; format: ADME, Canis lupus familiaris
[15] = Hepatic blood flow in human; format: ADME
[16] = Half life in mouse; format: ADME, organism-based; details: in vivo
[17] = Half life in rat; format: ADME; details: in vivo
[18] = Half life in monkey; format: ADME, Macaca mulatta; details: rhesus monkey, in vivo
[19] = Oral bioavailability in monkey; format: ADME, organism-based, Macaca mulatta; details: rhesus monkey, in vivo
[20] = In vivo inhibition of Wnt pathway in Hsd athymic nude mouse xenografted with human DLD1 cells assessed as increase in tankyrase protein level in tumor at 10 to 30 mg/kg, po administered as single dose and measured after 2 to 8 hrs; format: functional, organism-based; details: DLD-1, dose 10-30 mg/kg, time 2-8 hrs
[21] = In vivo inhibition of Wnt pathway in Hsd athymic nude mouse xenografted with human DLD1 cells assessed as increase in axin2 protein level in tumor at 10 to 30 mg/kg, po administered as single dose and measured after 2 to 8 hrs; format: functional, organism-based; details: DLD-1, dose 10-30 mg/kg, time 2-8 hrs
[22] = In vivo inhibition of Wnt pathway in Hsd athymic nude mouse xenografted with human DLD1 cells assessed as increase in tankyrase protein level in tumor at 10 to 30 mg/kg, po administered as single dose and measured after 18 hrs; format: functional, organism-based; details: DLD-1, dose 10-30 mg/kg
COLO 320 = experiment: Antitumor activity against human COLO 320 cells xenografted in CB17-SCID mouse assessed as tumor growth inhibition at 20 mg/kg, po, administered twice daily via gavage and measured twice weekly; format: functional, organism-based
HT55 [23] = experiment: Antitumor activity against human HT55 cells xenografted in CD-1 nude mouse assessed as tumor growth inhibition at 20 mg/kg, po, administered twice daily via gavage and measured twice weekly; format: functional, organism-based
[24] = Toxicity in CD-1 nude mouse xenografted with human HT55 cells assessed as drug tolerance at 15 mg/kg, po administered twice daily via gavage for 20 days; format: organism-based; details: in vivo, 480 h, time 20 day
[25] = Toxicity in CB17-SCID mouse xenografted with human COLO 320 cells assessed as reduction in body weight at 20 mg/kg, po administered twice daily via gavage for 20 days and measured twice weekly; format: organism-based; details: in vivo, 480 h, time 20 day

T1 sequence (P09874 whole entry): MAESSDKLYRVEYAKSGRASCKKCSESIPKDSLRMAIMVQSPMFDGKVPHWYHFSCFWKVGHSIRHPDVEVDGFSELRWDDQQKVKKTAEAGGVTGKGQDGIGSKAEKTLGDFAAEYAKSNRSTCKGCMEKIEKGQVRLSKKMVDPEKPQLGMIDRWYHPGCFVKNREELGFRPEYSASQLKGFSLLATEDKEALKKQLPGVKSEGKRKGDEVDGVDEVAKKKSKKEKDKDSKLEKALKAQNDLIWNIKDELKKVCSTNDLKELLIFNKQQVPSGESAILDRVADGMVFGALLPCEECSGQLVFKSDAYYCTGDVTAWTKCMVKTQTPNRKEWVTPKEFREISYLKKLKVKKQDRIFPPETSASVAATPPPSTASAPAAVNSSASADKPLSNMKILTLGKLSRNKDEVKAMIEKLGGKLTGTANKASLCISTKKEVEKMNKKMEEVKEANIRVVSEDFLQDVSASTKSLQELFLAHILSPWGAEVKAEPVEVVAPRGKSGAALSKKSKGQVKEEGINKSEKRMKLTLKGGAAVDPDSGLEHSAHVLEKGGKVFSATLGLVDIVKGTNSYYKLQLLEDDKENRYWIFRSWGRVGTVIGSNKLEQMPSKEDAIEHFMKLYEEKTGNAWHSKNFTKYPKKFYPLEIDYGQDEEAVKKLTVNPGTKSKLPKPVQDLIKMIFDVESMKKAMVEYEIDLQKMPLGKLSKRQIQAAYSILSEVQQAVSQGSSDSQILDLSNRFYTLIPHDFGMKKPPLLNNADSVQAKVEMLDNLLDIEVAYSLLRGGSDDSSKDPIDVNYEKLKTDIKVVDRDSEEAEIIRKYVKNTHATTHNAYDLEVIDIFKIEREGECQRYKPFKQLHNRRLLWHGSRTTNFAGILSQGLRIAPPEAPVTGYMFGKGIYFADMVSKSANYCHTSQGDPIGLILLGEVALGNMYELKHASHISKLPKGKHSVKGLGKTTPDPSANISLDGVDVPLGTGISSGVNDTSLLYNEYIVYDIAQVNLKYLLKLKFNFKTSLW
Chain of Adenosine receptor A3 (P0DMS8 whole entry): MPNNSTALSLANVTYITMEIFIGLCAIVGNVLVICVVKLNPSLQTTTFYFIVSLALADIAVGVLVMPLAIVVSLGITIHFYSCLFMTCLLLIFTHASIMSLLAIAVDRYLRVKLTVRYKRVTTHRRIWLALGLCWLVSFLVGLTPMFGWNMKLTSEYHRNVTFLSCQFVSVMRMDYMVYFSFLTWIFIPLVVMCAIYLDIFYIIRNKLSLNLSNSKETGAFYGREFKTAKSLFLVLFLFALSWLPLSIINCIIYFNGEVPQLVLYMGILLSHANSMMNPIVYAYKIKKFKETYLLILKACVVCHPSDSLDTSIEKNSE
Chain of Protein mono-ADP-ribosyltransferase TIPARP (Q7Z3E1 whole entry, the tested form may be a part): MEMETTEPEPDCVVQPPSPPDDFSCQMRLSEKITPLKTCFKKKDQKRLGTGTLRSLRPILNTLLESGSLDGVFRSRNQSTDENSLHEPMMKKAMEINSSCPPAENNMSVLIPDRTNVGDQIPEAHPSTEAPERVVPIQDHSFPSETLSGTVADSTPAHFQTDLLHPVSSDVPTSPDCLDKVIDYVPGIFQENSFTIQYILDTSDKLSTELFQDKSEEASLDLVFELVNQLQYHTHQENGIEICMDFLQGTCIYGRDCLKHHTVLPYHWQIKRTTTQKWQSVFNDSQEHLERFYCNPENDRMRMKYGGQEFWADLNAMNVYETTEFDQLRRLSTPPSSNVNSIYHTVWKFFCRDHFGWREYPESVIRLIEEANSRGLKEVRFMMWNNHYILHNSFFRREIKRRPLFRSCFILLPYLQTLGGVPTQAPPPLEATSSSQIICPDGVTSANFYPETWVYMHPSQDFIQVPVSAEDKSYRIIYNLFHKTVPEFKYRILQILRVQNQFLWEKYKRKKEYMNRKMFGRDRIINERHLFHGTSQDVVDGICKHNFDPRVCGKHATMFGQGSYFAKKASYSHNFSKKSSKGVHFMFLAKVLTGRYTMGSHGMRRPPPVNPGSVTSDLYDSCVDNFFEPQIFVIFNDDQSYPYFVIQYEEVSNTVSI
Chain of Protein mono-ADP-ribosyltransferase PARP10 (Q53GL7 whole entry, the tested form may be a part): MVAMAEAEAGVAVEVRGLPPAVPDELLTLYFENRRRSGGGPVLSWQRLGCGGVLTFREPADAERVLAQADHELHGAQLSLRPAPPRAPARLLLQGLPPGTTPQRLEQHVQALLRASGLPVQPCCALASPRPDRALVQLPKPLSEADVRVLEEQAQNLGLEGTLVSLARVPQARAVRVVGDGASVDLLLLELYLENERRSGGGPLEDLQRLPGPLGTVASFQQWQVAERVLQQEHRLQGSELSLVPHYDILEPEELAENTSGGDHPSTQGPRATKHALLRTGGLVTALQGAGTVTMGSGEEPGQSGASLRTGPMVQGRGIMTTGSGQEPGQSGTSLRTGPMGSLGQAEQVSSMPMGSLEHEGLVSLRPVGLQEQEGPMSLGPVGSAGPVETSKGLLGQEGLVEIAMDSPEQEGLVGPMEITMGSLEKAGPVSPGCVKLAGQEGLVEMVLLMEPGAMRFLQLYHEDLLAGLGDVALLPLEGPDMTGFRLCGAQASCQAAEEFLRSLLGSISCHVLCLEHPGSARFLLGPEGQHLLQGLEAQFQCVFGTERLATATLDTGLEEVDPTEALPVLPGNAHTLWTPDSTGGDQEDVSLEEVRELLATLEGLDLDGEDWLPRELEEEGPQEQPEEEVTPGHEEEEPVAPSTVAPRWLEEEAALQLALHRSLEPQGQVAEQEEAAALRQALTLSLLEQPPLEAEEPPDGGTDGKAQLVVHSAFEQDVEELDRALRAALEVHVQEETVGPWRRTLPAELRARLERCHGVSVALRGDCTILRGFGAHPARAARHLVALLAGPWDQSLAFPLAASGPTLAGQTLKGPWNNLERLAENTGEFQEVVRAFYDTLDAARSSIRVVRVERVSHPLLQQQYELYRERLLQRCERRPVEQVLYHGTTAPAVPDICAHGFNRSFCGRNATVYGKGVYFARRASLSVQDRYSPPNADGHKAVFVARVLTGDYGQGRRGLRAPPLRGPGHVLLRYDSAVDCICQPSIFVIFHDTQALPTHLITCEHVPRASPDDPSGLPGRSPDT
Chain of Protein mono-ADP-ribosyltransferase PARP14 (Q460N5 whole entry, the tested form may be a part): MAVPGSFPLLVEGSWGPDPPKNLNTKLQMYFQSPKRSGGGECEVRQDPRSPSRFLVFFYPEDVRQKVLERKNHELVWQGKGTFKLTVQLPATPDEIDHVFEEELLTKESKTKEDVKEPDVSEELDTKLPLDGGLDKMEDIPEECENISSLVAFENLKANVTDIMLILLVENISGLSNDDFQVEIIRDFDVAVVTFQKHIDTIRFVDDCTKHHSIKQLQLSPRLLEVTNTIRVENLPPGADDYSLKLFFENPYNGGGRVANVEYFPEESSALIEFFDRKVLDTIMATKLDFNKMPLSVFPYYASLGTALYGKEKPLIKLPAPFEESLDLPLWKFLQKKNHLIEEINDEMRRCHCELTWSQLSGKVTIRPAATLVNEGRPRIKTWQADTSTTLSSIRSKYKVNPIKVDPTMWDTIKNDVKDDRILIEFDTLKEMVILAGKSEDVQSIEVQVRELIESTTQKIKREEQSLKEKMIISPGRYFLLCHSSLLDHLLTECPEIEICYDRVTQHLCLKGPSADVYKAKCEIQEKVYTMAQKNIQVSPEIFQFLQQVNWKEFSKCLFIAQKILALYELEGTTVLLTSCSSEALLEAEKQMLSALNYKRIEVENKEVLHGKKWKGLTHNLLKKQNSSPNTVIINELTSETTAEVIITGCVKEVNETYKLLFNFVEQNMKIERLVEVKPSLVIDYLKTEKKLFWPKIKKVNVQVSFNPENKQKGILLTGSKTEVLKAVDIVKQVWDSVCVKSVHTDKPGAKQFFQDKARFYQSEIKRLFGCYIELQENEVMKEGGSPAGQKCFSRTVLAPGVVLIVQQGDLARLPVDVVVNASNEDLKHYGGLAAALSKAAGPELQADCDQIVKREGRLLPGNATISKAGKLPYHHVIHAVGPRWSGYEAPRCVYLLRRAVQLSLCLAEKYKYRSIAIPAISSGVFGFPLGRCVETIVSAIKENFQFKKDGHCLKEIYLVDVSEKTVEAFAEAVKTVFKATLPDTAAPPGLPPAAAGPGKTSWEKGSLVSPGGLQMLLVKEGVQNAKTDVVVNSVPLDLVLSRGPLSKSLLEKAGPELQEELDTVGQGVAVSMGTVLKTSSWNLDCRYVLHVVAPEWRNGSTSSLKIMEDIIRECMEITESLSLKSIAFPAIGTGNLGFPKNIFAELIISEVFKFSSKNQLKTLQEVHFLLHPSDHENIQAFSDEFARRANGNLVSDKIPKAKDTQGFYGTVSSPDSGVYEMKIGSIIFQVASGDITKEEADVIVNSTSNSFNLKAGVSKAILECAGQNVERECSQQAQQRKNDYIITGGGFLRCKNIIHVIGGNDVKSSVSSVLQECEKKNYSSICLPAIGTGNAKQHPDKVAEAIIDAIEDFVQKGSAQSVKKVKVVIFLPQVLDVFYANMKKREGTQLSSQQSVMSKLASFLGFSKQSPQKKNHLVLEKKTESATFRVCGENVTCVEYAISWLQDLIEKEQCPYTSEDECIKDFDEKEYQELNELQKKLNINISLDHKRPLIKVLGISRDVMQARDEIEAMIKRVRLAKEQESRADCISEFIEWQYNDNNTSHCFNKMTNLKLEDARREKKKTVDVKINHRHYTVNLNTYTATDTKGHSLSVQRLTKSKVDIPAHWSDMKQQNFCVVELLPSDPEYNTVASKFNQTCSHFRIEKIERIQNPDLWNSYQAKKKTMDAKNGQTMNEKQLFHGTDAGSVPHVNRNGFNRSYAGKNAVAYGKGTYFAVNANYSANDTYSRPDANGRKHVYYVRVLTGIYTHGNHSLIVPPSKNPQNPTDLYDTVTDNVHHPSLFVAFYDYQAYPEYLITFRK

Cc1ccc2c(=O)[nH]c(-c3ccc(C(C)(C)O)cc3)cn12
EC50 [1]: 0.016 µM
IC50 [2]: 0.928 µM
IC50 [3]: 0.0014 µM
IC50 [4]: 0.14 µM
IC50 [5]: 0.33 µM
IC50 [6]: 2.9 µM
IC50 [7]: > 10 µM
Activity (HT55 [8]): Dose-Dependent Effect
Activity (DLD-1): inactive
Activity (HCT-15): inactive
IC50 (Adenosine receptor A3): 10 µM
fraction unbound [9]: 0.16
fraction unbound [10]: 0.14
fraction unbound [11]: 0.21
Vd [12]: 3.15 L/kg
QH [13]: 56%
QH [14]: 130%
QH [15]: 17%
half-life [16]: 58.6 min
half-life [17]: 20.4 min
half-life [18]: 60.6 min
bioavailability [19]: 6.7%
inhibition [20]: Active
inhibition [21]: Active
inhibition [22]: inactive
Activity (COLO 320): Active
Activity (HT55 [23]): Active
Activity [24]: Non-Toxic
Activity [25]: Non-Toxic
